For 16 compounds, IC50 and inhibition results are on record in patent publication US20070142270A1, “Aryl Sulfonic Pyridoxines as Antiplatelet Agents” (priority 2004, published 2007).

The target of one test is T1, human Factor Xa (fXa) (Homo sapiens, UniProt P00742).
T1 construct: purchased Haematologic Technologies Inc. (Essex Junction, Vt.)
Put plainly: Inhibition of serine protease activity, factor Xa, chromogenic substrate Pefachrome Xa. The format is biochemical. The note with it: 2 nM human Factor Xa, 300 μM substrate, pH 7.5. Here is the method:
(§1) The enzymes factor Xa (fXa), thrombin (factor IIa or fIIa), and trypsin were purchased from Haematologic Technologies Inc. (Essex Junction, Vt.). The substrates Pefachromes Xa, Th, and Try were purchased from Centerchem Inc. (Stamford, Conn.). Varying concentrations of the sulfonamide compounds were incubated for 30 min at room temperature with purified activated human enzyme in the appropriate buffer. Various concentrations of the corresponding synthetic substrate were added, and activity was measured at 37° C. by monitoring absorbance at 405 nm for 15 min with a Flurostar Optima plate reader. […] For controls, the appropriate percentage of solvent was used instead of test compound. The specific activity (ΔA405/min/nM protein), and the percent activity was calculated for each data point. The IC50 was calculated by linear regression of log[test compound] vs. % activity. The enzyme activity of the sulfonamide compound was determined using the Enzyme Kinetics Module of Sigmaplot 8.0 (SPSS Inc.)
The final concentration of human Factor Xa was 2 nM in a Tris/NaCl buffer (pH 7.5) containing 0.25% (w/v) polyethylene glycol (MW 8000). The substrate employed was Pefachrome Xa.

The target in test [1] is T2, human thrombin (factor IIa, fIIa) (Homo sapiens, UniProt P00734).
T2 construct: purchased Haematologic Technologies Inc. (Essex Junction, Vt.)
Nature of the test: Inhibition of serine protease activity, thrombin, chromogenic substrate Pefachrome Th. The following applies: 2 nM human thrombin, 300 μM substrate, pH 8.3. The format is biochemical. Here is the method: as §1
The final concentration of human thrombin was 2 nM in a Tris/NaCl buffer (pH 8.3) containing 0.125% (w/v) bovine serum albumin. The substrate used was Pefachrome Th.

The next test relates to human trypsin. Nature of the test: Inhibition of serine protease activity, trypsin, chromogenic substrate Pefachrome Try. The format is biochemical. The note with it: 2 nM human trypsin, 300 μM substrate, pH 7.5. Here is the method:
as §1
The final concentration of human trypsin was 2 nM in a Tris/NaCl buffer (pH 7.5) containing 0.25% (w/v) bovine serum albumin and 20 μM CaCl2. The substrate used was Pefachrome Try.

In test [2] the test system is platelets (platelet rich plasma). Put plainly: Inhibition of platelet aggregation in platelet rich plasma (Chrono-log aggregometer). The note with it: human PRP; for inhibition at 250 µM: compound concentration 250 μM; for inhibition at 100 µM: compound concentration 100 μM. It counts as cell-based. Here is the method: Platelet poor plasma (PPP) was obtained by centrifuging the remainder of the sample after the platelets were removed at 800×g for about 10 minutes. The PRP was adjusted to a count of 280×10^9/L using a mixture of PRP and PPP. The platelets (200 μL) were incubated with the test compounds (25 μL) adjusted to various concentrations ([…]) for about 30 minutes at room temperature (approximate final platelet count in the incubation mixture of 250×10^9/L). The samples were incubated for about 3 minutes at about 37° C., and then transferred to the mixing wells of a Chrono-log 4 channel aggregometer (Chrono-log Corp., Havertown, Pa.). After baselines were established, the agonist (25 μL of 40 μM ADP (Sigma, St. Louis, Mo.) or 25 μL of 50 μg/mL and 10 μg/mL collagen (Helena Laboratories, Beaumont, Tex.) or 25 μL of 120 μM thrombin receptor activating peptide (TRAP) (Sigma)) was then added. Aggregation was monitored for 5 minutes at 37° C. with stirring (1000 rpm). The amplitude and slope of each tracing were calculated to determine the amount of aggregation. Control samples were performed using only solvent. The % reduction in aggregation was calculated for each sample compared to the proper solvent control.

The mark [3] stands for this setting: agonist ADP 4 μM, read-out: % Reduction in Aggregation, ADP (4 μM).
[4] abbreviates: agonist TRAP 12 μM, read-out: % Reduction in Aggregation, TRAP (12 μM).
The mark [5] stands for this setting: agonist collagen 1 μg/mL, read-out: % Reduction in Aggregation, Collagen (1 μg/mL).
The mark [6] stands for this setting: agonist collagen 5 μg/mL, read-out: % Reduction in Aggregation, Collagen (5 μg/mL).

Read-outs that look alike come from different tables or passages of the source.

T1 sequence (P00742 235-488 limits assumed): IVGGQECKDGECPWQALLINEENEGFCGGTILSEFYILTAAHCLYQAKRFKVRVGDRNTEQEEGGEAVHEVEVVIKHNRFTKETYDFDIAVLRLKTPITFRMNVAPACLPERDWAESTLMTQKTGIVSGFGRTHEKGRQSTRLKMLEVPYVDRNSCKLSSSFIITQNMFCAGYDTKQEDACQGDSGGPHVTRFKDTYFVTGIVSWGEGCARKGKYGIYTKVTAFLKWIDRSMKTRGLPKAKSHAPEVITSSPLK
T1 sequence (P00742 41-179 partner limits assumed): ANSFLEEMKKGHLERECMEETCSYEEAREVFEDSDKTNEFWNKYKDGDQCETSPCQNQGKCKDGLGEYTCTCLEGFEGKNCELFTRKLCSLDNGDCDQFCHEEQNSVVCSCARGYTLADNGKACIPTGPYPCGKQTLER

In the case of `Cc1ncc(CNc2ccc(-c3ccccc3S(=O)(=O)NC(C)(C)C)cc2)c(CO)c1O` [Compound 2, 4′-[(5-Hydroxy-4-hydroxymethyl-6-methyl-pyridin-3-ylmethyl) -amino]-biphenyl-2-sulfonic acid tert-butylamide], the IC50 (as a rule, the concentration at which inhibition is half-maximal) was 329 µM against human Factor Xa (fXa), more than 1000 µM in test [1] and more than 1000 µM in the test with human trypsin.
Consider `Cc1ncc(CNc2ccc(-c3ccccc3S(N)(=O)=O)cc2)c(CO)c1O` [Compound 3, 4′-[(5-Hydroxy-4-hydroxymethyl-6-methyl-pyridin-3-ylmethyl)-amino]-biphenyl-2-sulfonic acid amide], for which the inhibition at 250 µM in test [2] (setting [3]) was 0%; in test [2] (setting [4]) it was 6%; in test [2] (setting [5]), 0%; in test [2] (setting [6]), 5%. The 50% inhibitory concentration (IC50) (on human Factor Xa (fXa); in test [1]; in the test on human trypsin) was more than 1000 µM each time.
For the compound `Cc1ncc(CNC(=O)c2ccc(-c3ccccc3S(=O)(=O)NC(C)(C)C)cc2)c(CO)c1O` [Compound 5, 2′-tert-Butylsulfamoyl-biphenyl-4-carboxylic acid (5-hydroxy-4-hydroxymethyl-6-methyl-pyridin-3-ylmethyl)-amide], the 50% inhibitory concentration (IC50) was 362 µM at human Factor Xa (fXa), more than 1000 µM in test [1] and more than 1000 µM with human trypsin.
Regarding `Cc1ncc(CNC(=O)c2ccc(-c3ccccc3S(N)(=O)=O)cc2)c(CO)c1O` [Compound 6, 2′-Sulfamoyl-biphenyl-4-carboxylic acid (5-hydroxy-4-hydroxymethyl-6-methyl-pyridin-3-ylmethyl)-amide], the inhibition at 250 µM is 0% in test [2] (setting [3]), 1% in test [2] (setting [4]), 5% in test [2] (setting [5]) and 0% in test [2] (setting [6]). Also, the IC50 against human Factor Xa (fXa) was 306 µM; in test [1], more than 1000 µM; with human trypsin, more than 1000 µM.
Turning to `Cc1ncc(CO)c(CNc2ccc(-c3ccccc3S(=O)(=O)NC(C)(C)C)cc2)c1O` [Compound 7, 4′-[(3-Hydroxy-5-hydroxymethyl-2-methyl-pyridin-4-ylmethyl)-amino]-biphenyl-2-sulfonic acid tert-butylamide], the IC50 was 197 µM at human Factor Xa (fXa), more than 1000 µM in test [1] and more than 1000 µM in the test with human trypsin.
For `Cc1ncc(CO)c(CNc2ccc(-c3ccccc3S(N)(=O)=O)cc2)c1O` [Compound 8], the concentration for half-maximal inhibition (IC50) (against human Factor Xa (fXa); in test [1]; in the test with human trypsin) was more than 1000 µM in each case.
Consider `Cc1ncc(CNc2ccc(-c3ccccc3S(N)(=O)=O)cc2)c(CO)c1OCc1cccc(C(=N)N)c1` [Compound 14], for which the inhibition at 250 µM stood at 10% in test [2] (setting [3]), 9% in test [2] (setting [4]), 15% in test [2] (setting [5]) and 5% in test [2] (setting [6]). In addition, the values for the 50% inhibitory concentration (IC50) (against human Factor Xa (fXa); in test [1]; with human trypsin) were 15 µM, 862 µM and 12 µM, respectively.
For `Cc1ncc(CNc2ccc(-c3ccccc3S(N)(=O)=O)cn2)c(CO)c1OCc1cccc(C(=N)N)c1` [Compound 16], the inhibition at 250 µM in test [2] (setting [3]) came out at 3%; in test [2] (setting [4]) it was 1.3%; in test [2] (setting [5]), 14%; in test [2] (setting [6]), 0%. In addition, the IC50 at human Factor Xa (fXa) is 11 µM; in test [1], more than 1000 µM; with human trypsin it was 11 µM.
Turning to `Cc1ncc(CNc2cccc(-c3ccccc3S(N)(=O)=O)c2)c(CO)c1O` [Compound 21, 3′-[(5-Hydroxy-4-hydroxymethyl-6-methyl-pyridin-3-ylmethyl)-amino]-biphenyl-2-sulfonic acid amide], the inhibition at 250 µM in test [2] (setting [3]) worked out at 14%; in test [2] (setting [4]), 0%; in test [2] (setting [5]), 4%; in test [2] (setting [6]) it was 0%. Besides, the half-inhibitory concentration (IC50) against human Factor Xa (fXa) was 326 µM; in test [1] it was more than 1000 µM; with human trypsin, more than 1000 µM.
On to `Cc1ncc(CNC(=O)c2ccc(-c3ccccc3S(N)(=O)=O)cc2)c(CO)c1OCc1cccc(C(=N)N)c1` [Compound 23], for which the results for the IC50 (at human Factor Xa (fXa); in test [1]; in the test on human trypsin) were 5 µM, 97 µM and 24 µM, respectively.
Consider `Cc1ncc(CO)c(CNc2ccc(-c3ccccc3S(N)(=O)=O)cc2)c1OCc1cccc(C(=N)N)c1` [Compound 25, 3-{5-Hydroxymethyl-2-methyl-4-[(2′-sulfamoyl-biphenyl-4-ylamino)-methyl]-pyridin-3-yloxymethyl}-benzamidine], for which the IC50 on human Factor Xa (fXa) is 4 µM; in test [1], more than 1000 µM; with human trypsin, 15 µM.
With `Cc1ncc(CO)c(CNc2cccc(-c3ccccc3S(N)(=O)=O)c2)c1OCc1ccc(C(=N)N)cc1` [Compound 28, 4-{5-Hydroxymethyl-2-methyl-4-[(2′-sulfamoyl-biphenyl-3-ylamino)-methyl]-pyridin-3-yloxymethyl}-benzamidine], the inhibition at 250 µM in test [2] (setting [3]) is 26%; in test [2] (setting [4]), 11%; in test [2] (setting [5]) it was 10%; in test [2] (setting [6]), 15%. Further, the IC50 on human Factor Xa (fXa) amounted to 17 µM; in test [1], 476 µM; in the test on human trypsin it was 3 µM.
As to `Cc1ncc(CO)c(CNc2ccc(-c3ccccc3S(N)(=O)=O)cc2F)c1OCc1ccc(C(=N)N)cc1` [Compound 30, 4-{4-[(3-Fluoro-2′-sulfamoyl-biphenyl-4-ylamino)-methyl]-5-hydroxymethyl-2-methyl-pyridin-3-yloxymethyl}-benzamidine], the inhibition at 100 µM in test [2] (setting [3]) was found to be 23%; in test [2] (setting [4]) it was 57%; in test [2] (setting [5]), 57%; in test [2] (setting [6]), 19%. Further, the 50% inhibitory concentration (IC50) amounted to 18 µM against human Factor Xa (fXa), 171 µM in test [1] and 4 µM with human trypsin.
For `Cc1ncc(CNc2ccc(-c3ccccc3S(N)(=O)=O)cn2)c(CO)c1O` [Compound 31, 2-{6-[(5-Hydroxy-4-hydroxymethyl-6-methyl-pyridin-3-ylmethyl)-amino]-pyridin-3-yl}-benzenesulfonamide], the IC50 (against human Factor Xa (fXa); in test [1]; with human trypsin) was more than 1000 µM each time.
As to `Cc1ncc(CO)c(CNc2cccc(-c3ccccc3S(N)(=O)=O)c2)c1O` [Compound 32, 3′-[(3-Hydroxy-5-hydroxymethyl-2-methyl-pyridin-4-ylmethyl)-amino]-biphenyl-2-sulfoniamide], the concentration for half-maximal inhibition (IC50) (in test [1]; in the test on human trypsin) was more than 1000 µM throughout.
On to `Cc1ncc(CNc2ccc(-c3ccc(C(=N)N)cc3)cc2)c(CO)c1O` [Compound 34, reference compound], for which the inhibition at 250 µM in test [2] (setting [3]) is 63%; in test [2] (setting [4]), 93%; in test [2] (setting [5]) it was 41%; in test [2] (setting [6]) it was 1%. Besides, the IC50 against human Factor Xa (fXa) was 29 µM; in test [1] it was more than 1000 µM; with human trypsin, 4 µM.
